Assay results from paper PMC8151276, “An Integrated Approach toward NanoBRET Tracers for Analysis of GPCR Ligand Engagement” (Molecules, 2021).

Assays:
Format in all cases: binding
P2RY2 = target: T1, P2RY2 (Homo sapiens, UniProt P41231); assay: NanoBRET screen HiBiT-P2RY2 in HEK293
T1 construct: purchased Promega (in-house HiBiT-GPCR construct library, NanoBRET)
Protocol: (§1) Each tracer candidate was screened across the entire library of HiBiT-GPCR constructs using NanoBRET as the detection modality. As depicted in Figure 4A, the specificity of interactions was evaluated through decrease in BRET due to competitive displacement of a bound tracer by excess parental compound. Each tracer was analyzed for binding to each HiBiT-GPCR fusion in the absence and in the presence of competing parental compound. Briefly, HEK293 cells were transfected with HiBiT-GPCR constructs diluted into promoterless DNA to reduce expression and maximize translocation to the cell surface. Each tracer candidate was then screened at concentrations of 1 μM and 0.1 μM across cells expressing these fusions. Cells were treated for 1.5 h with tracer either alone or in the presence of 20 μM competing parental compound (i.e., control). BRET was measured upon addition of purified LgBiT and subsequent complementation with HiBiT genetically fused to a GPCR. The specificity of interactions was assessed through a decrease in BRET signal due to competitive displacement of the bound tracer. To further gauge the robustness of these interactions, the fold response over the control (i.e., BRETtracer/BRETcontrol) was calculated. We chose a 1.5-fold response, which translates to ≥7-fold signal over noise as the minimal threshold required to score an interaction as positive. […]. Below we highlight the screening results obtained for our exemplary fluorescent tracers based on Clozapine, Amitriptyline and AZD1283.
(§2) HiBiT-GPCR DNA constructs were diluted in 10 mM Tris pH 8 to a final concentration of 0.01 μg/μL, arrayed in 96-well plates and stored at −20 °C. For transfection, HEK293 cells were suspended in Opti-MEM (without phenol red) supplemented with 2% fetal bovine serum (Seradigm) and 100 units/mL penicillin–streptomycin (Gibco) at a final concentration of 220,000 cells/mL and dispensed into white 96-well plates at 90 μL/well. Subsequent transfections and screens were carried using an Agilent Bravo Automated Liquid Handling Platform. First, the 96-well HiBiT DNA arrays were diluted 25-fold in Opti-MEM (without serum or phenol red) to a final concentration of 0.0004 μg/μL and 20 μL of the diluted DNAs were transferred into new 96-well plates. Next, promoterless carrier DNA (1 μg/μL) was diluted 25-fold (0.04 μg/μL) and then dispensed into the diluted arrays at 20 μL/well. Following brief mixing, Viafect transfection reagent (Promega) diluted 16-fold into Opti-MEM was dispensed into the plates at 40 μL/well. After mixing by pipetting, plates were incubated for 10 min on the pipetting station deck. The DNA-transfection reagent complexes were then added to plates containing cells. To facilitate the screen, 10 μL of DNA-transfection reagent complexes were added in duplicates to the top 4 and bottom 4 rows, resulting in two identical 48-well arrays per plate. Plates with transfected cells were incubated for 18–20 h at 37 °C/5% CO2. A screen of each tracer across the entire library using two different concentrations requires duplicate plates of transfected cells. Depending on the number of tracers being screened, transfections can be scaled up using the same ratios. The next day, for each tracer, four 20× screening solutions in tracer dilution buffer (Promega) were prepared: two duplicates at final concentration of 20 μM and two duplicates at a final concentration of 2 μM. A competing unmodified compound was added to one of each duplicate at a final concentration of 400 μM. The four resulting solutions were diluted 4-fold in Opti-MEM without serum or phenol red to generate 5× solutions (5 µM and 0.5 µM tracer +/− 100 μM competing compound). To screen the library, a BioTek MultiFlo FX liquid dispenser was used to dispense 22.5 µL of tracer solution to the top 4 rows and 22.5 µL tracer + competing compound solution to the 4 bottom rows. Plates were briefly mixed on an orbital shaker and incubated for 1.5 h at room temperature. […]

BRS3 = target: T2, BRS3 (Homo sapiens, UniProt P32247); assay: NanoBRET screen HiBiT-BRS3 in HEK293
T2 construct: purchased Promega (in-house HiBiT-GPCR construct library, NanoBRET)
T2 sequence (P32247 1-399): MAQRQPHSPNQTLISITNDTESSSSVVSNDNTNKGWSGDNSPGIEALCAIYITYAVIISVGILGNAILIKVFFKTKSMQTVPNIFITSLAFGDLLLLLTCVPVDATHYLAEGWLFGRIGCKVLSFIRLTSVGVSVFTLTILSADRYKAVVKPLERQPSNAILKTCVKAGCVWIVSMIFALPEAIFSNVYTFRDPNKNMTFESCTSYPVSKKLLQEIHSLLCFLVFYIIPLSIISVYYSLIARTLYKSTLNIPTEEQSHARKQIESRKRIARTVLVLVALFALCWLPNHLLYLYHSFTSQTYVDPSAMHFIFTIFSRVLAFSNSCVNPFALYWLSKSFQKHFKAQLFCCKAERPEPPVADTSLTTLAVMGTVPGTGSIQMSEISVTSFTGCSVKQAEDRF
Protocol: as §1, §2

MTNR1B = target: T3, MTNR1B (Homo sapiens, UniProt P49286); assay: NanoBRET screen HiBiT-MTNR1B in HEK293; conditions: MTNR1B
T3 construct: purchased Promega (in-house HiBiT-GPCR construct library, NanoBRET)
T3 sequence (P49286 1-362): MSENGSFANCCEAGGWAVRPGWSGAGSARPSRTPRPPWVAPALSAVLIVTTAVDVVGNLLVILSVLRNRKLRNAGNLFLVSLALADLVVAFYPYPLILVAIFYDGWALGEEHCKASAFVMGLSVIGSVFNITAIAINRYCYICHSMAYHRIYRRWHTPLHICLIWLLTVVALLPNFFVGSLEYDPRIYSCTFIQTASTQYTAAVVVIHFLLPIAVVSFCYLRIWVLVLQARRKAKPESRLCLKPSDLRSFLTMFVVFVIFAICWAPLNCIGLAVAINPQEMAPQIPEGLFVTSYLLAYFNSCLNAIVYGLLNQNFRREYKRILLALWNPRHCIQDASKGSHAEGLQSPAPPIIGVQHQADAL
Protocol: as §1, §2

P2RY10 = target: T4, P2RY10 (Homo sapiens, UniProt O00398); assay: NanoBRET screen HiBiT-P2RY10 in HEK293
T4 construct: purchased Promega (in-house HiBiT-GPCR construct library, NanoBRET)
T4 sequence (O00398 whole entry, one chain of several): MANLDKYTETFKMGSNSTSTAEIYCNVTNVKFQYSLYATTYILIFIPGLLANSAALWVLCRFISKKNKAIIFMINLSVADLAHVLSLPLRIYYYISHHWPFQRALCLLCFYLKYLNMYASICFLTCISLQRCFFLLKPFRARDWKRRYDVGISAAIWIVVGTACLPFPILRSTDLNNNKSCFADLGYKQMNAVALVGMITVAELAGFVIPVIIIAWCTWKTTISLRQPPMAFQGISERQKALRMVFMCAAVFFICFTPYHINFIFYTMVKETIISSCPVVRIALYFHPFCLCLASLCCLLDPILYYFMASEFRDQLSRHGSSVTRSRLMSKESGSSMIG
Protocol: as §1, §2

GCGR = target: T5, GCGR (Homo sapiens, UniProt P47871); assay: NanoBRET screen HiBiT-GCGR in HEK293; conditions: GCGR
T5 construct: purchased Promega (in-house HiBiT-GPCR construct library, NanoBRET)
T5 sequence (P47871 26-477): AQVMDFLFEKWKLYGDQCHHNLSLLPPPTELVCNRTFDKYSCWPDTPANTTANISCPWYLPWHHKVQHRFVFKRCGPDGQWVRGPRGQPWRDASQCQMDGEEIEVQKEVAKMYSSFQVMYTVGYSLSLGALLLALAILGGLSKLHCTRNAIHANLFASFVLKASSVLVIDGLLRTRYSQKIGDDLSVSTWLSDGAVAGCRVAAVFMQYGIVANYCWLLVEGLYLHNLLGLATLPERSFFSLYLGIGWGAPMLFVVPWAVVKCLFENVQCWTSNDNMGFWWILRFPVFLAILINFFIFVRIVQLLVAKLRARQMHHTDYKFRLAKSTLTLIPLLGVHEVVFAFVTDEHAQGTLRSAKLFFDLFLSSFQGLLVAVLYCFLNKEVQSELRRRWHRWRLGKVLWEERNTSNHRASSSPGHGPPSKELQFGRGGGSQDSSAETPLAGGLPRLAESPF
Protocol: as §1, §2

AGTR2 = target: T6, AGTR2 (Homo sapiens, UniProt P50052); assay: NanoBRET screen HiBiT-AGTR2 in HEK293
T6 construct: purchased Promega (in-house HiBiT-GPCR construct library, NanoBRET)
T6 sequence (P50052 1-363): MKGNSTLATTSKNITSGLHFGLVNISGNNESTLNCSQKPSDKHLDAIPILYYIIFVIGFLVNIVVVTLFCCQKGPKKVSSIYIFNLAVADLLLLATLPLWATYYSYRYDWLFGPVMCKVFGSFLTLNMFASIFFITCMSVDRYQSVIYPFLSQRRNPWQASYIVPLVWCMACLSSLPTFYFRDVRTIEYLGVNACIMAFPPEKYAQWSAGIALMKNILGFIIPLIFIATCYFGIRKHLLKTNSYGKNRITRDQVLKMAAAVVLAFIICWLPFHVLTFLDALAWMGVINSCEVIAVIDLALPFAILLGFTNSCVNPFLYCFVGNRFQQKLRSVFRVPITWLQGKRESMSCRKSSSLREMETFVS
Protocol: as §1, §2

T1 sequence (P41231 whole entry): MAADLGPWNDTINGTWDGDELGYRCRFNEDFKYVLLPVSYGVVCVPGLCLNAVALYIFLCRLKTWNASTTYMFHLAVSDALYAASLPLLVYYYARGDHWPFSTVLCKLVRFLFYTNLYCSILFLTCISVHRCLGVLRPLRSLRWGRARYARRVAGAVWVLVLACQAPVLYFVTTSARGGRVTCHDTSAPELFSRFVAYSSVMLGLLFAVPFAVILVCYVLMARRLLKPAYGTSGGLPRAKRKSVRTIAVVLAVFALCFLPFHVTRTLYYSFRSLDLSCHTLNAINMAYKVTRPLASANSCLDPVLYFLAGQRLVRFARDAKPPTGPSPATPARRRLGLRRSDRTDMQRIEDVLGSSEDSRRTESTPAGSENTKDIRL

## O=C(CCc1ccc2n1[B-](F)(F)[N+]1=C(c3ccc[nH]3)C=CC1=C2)NCc1ccc(C(=O)NCCOCCC(=O)N[C@@H]2CC[C@@]3(O)[C@H]4Cc5ccc(O)c6c5[C@@]3(CCN4CC3CC3)[C@H]2O6)cc1 [Naltrexone-3-NB590]
P2RY2; P2RY2, tracer 0.1μM
  NanoBRET Fold Response: 0.90
P2RY2; P2RY2, tracer 1μM
  NanoBRET Fold Response: 1.10
BRS3; BRS3, tracer 0.1μM
  NanoBRET Fold Response: 1.05
BRS3; BRS3, tracer 1μM
  NanoBRET Fold Response: 0.94
MTNR1B; tracer 0.1μM
  NanoBRET Fold Response: 0.94
MTNR1B; tracer 1μM
  NanoBRET Fold Response: 0.66
P2RY10; P2RY10, tracer 0.1μM
  NanoBRET Fold Response: 1.07
P2RY10; P2RY10, tracer 1μM
  NanoBRET Fold Response: 1.36
GCGR; tracer 0.1μM
  NanoBRET Fold Response: 1.06
GCGR; tracer 1μM
  NanoBRET Fold Response: 0.92
AGTR2; AGTR2, tracer 0.1μM
  NanoBRET Fold Response: 1.23
AGTR2; AGTR2, tracer 1μM
  NanoBRET Fold Response: 0.67

## CN1CCN(C2=Nc3cc(Cl)ccc3N(CC(=O)NCCOCCOCCOCCOCCNC(=O)CCc3ccc4n3[B-](F)(F)[N+]3=C(c5ccc[nH]5)C=CC3=C4)c3ccccc32)CC1 [Clozapine-c-2-NB590]
P2RY2; P2RY2, 0.1μM tracer
  NanoBRET Fold Response: 0.99
P2RY2; P2RY2, 1μM tracer
  NanoBRET Fold Response: 0.84
BRS3; BRS3, 0.1μM tracer
  NanoBRET Fold Response: 0.93
BRS3; BRS3, 1μM tracer
  NanoBRET Fold Response: 1.07
MTNR1B; 0.1μM tracer
  NanoBRET Fold Response: 0.98
MTNR1B; 1μM tracer
  NanoBRET Fold Response: 1.02
P2RY10; P2RY10, 0.1μM tracer
  NanoBRET Fold Response: 1.06
P2RY10; P2RY10, 1μM tracer
  NanoBRET Fold Response: 0.98
GCGR; 0.1μM tracer
  NanoBRET Fold Response: 0.99
GCGR; 1μM tracer
  NanoBRET Fold Response: 1.02
AGTR2; AGTR2, 0.1μM tracer
  NanoBRET Fold Response: 0.98
AGTR2; AGTR2, 1μM tracer
  NanoBRET Fold Response: 0.98

## O=C(CCOCCOCCOCCOCCNC(=O)CCc1ccc2n1[B-](F)(F)[N+]1=C(c3ccc[nH]3)C=CC1=C2)NCCCN1CCN(C2=Nc3cc(Cl)ccc3Nc3ccccc32)CC1 [Clozapine-a-2-NB590]
P2RY2; P2RY2, 0.1μM tracer
  NanoBRET Fold Response: 1.12
P2RY2; P2RY2, 1μM tracer
  NanoBRET Fold Response: 0.97
BRS3; BRS3, 0.1μM tracer
  NanoBRET Fold Response: 1.09
BRS3; BRS3, 1μM tracer
  NanoBRET Fold Response: 1.15
MTNR1B; 0.1μM tracer
  NanoBRET Fold Response: 1.06
MTNR1B; 1μM tracer
  NanoBRET Fold Response: 0.97
P2RY10; P2RY10, 0.1μM tracer
  NanoBRET Fold Response: 1.18
P2RY10; P2RY10, 1μM tracer
  NanoBRET Fold Response: 1.33
GCGR; 0.1μM tracer
  NanoBRET Fold Response: 0.94
GCGR; 1μM tracer
  NanoBRET Fold Response: 1.14
AGTR2; AGTR2, 0.1μM tracer
  NanoBRET Fold Response: 1.02
AGTR2; AGTR2, 1μM tracer
  NanoBRET Fold Response: 1.03

## CCOC(=O)c1cc(C#N)c(N2CCC(C(=O)NS(=O)(=O)Cc3ccccc3/C=C/C(=O)NCCNC(=O)CCc3ccc4n3[B-](F)(F)[N+]3=C(c5ccc[nH]5)C=CC3=C4)CC2)nc1C [AZD1283-1-NB590]
P2RY2; P2RY2, 0.1μM
  NanoBRET Fold Response: 1.08
P2RY2; P2RY2, 1μM
  NanoBRET Fold Response: 1.12
BRS3; BRS3, 0.1μM
  NanoBRET Fold Response: 1.10
BRS3; BRS3, 1μM
  NanoBRET Fold Response: 1.02
MTNR1B; 0.1μM
  NanoBRET Fold Response: 0.97
MTNR1B; 1μM
  NanoBRET Fold Response: 0.53
P2RY10; P2RY10, 0.1μM
  NanoBRET Fold Response: 1.35
P2RY10; P2RY10, 1μM
  NanoBRET Fold Response: 1.22
GCGR; 0.1μM
  NanoBRET Fold Response: 1.05
GCGR; 1μM
  NanoBRET Fold Response: 1.12
AGTR2; AGTR2, 0.1μM
  NanoBRET Fold Response: 1.13
AGTR2; AGTR2, 1μM
  NanoBRET Fold Response: 1.17

## CN(CCC=C1c2ccccc2CCc2ccccc21)C(=O)CCOCCOCCOCCOCCNC(=O)CCc1ccc2n1[B-](F)(F)[N+]1=C(c3ccc[nH]3)C=CC1=C2 [Amitriptyline-e-2-NB590]
P2RY2; tracer at 1μM
  NanoBRET Fold Response: 0.98
P2RY10; tracer at 1μM
  NanoBRET Fold Response: 0.99
AGTR2; tracer at 1μM
  NanoBRET Fold Response: 0.97

## COc1ccccc1N1CCN(CCCCN2C(=O)c3ccc(CNC(=O)CCOCCOCCOCCOCCNC(=O)CCc4ccc5n4[B-](F)(F)[N+]4=C(c6ccc[nH]6)C=CC4=C5)cc3C2=O)CC1 [NAN-190-2-NB590]
BRS3; BRS3, tracer 0.1μM
  NanoBRET Fold Response: 1.04
BRS3; BRS3, tracer 1μM
  NanoBRET Fold Response: 0.97
MTNR1B; tracer 1μM
  NanoBRET Fold Response: 1.00
P2RY10; P2RY10, tracer 1μM
  NanoBRET Fold Response: 0.95
GCGR; tracer 0.1μM
  NanoBRET Fold Response: 1.06
GCGR; tracer 1μM
  NanoBRET Fold Response: 1.06
AGTR2; AGTR2, tracer 0.1μM
  NanoBRET Fold Response: 1.02
AGTR2; AGTR2, tracer 1μM
  NanoBRET Fold Response: 0.98

## CN(C)CCC=C1c2ccccc2CCc2ccc(C(=O)NCCNC(=O)CCOCCOCCOCCOCCNC(=O)CCc3ccc4n3[B-](F)(F)[N+]3=C(c5ccc[nH]5)C=CC3=C4)cc21 [Amitriptyline-a-2-NB590]
P2RY2; tracer at 0.1μM
  NanoBRET Fold Response: 1.00
P2RY2; tracer at 1μM
  NanoBRET Fold Response: 1.05
BRS3; tracer at 0.1μM
  NanoBRET Fold Response: 1.02
BRS3; tracer at 1μM
  NanoBRET Fold Response: 0.99
P2RY10; tracer at 0.1μM
  NanoBRET Fold Response: 1.09
P2RY10; tracer at 1μM
  NanoBRET Fold Response: 1.07
AGTR2; tracer at 0.1μM
  NanoBRET Fold Response: 1.01
AGTR2; tracer at 1μM
  NanoBRET Fold Response: 0.98
